Laboratory results reported in patent US11524010B2, “Substituted quinazoline sulfonamides as thioredoxin interacting protein (TXNIP) inhibitors” (SOUTHERN RESEARCH INSTITUTE, priority 2017, dated 2022).

Key:
TXNIP = test: Inhibition of glucose-induced endogenous TXNIP expression in INS-1 cells (qRT-PCR); format: cell-based, Rat; conditions: Rattus norvegicus, INS1, 24 h, 25 mM glucose; for inhibition at 1.5 µM: 1.5 μM compound; for inhibition at 12.5 µM: 12.5 μM compound
Experimental: The Rat INS-1 cell line was obtained from UAB and maintained in RPMI-1640 (Invitrogen #11875) supplemented with 10% fetal bovine serum (FBS), 100 U/ml penicillin and […] streptomycin, 10 mM HEPES, 1 mM Sodium Pyruvate, 50 μM 2-Mercaptoethanol, and 11.1 mM Glucose in a humidified incubator with a 5% C02 atmosphere at 37° C. 4×10^4 cells per well were seeded to 96-well plate and incubated at 37° C. overnight. A subset of the cells were then cultured in medium with 5 mM Glucose for 24 hrs and then treated in medium with 25 mM glucose with or without compounds to be tested for another 24 hrs.
For the primary high throughput screening (HTS) assay, stably transfected, monoclonal INS-1 cells were split using Trypsin (2 ml per T75 flask) and seeded at a density of 10^4/well in a 384-well plate and incubated overnight at low, 5 mM glucose. The next day, the medium was changed to high glucose (25 mM) or high glucose plus the small molecules to be tested and luciferase assays were performed 24 h later. […] For secondary screens, total RNA was extracted from 96-well cultured cells using RNeasy 96 kit (Qiagen #74181) following the manufacturer's protocol using spin technology. Then a one-step qRT-PCR amplification was performed using QuantiFast SYBR Green RT-PCR kit (Qiagen #204154) and was carried out in a 10 μl reaction which consisted of 2 μl RNA, 0.5 μM each of primers (Rat TXNIP 5′ primer: […] (SEQ ID NO:1) and Rat TXNIP 3′ primer: […] (SEQ ID NO:2); Or Rat 18S rRNA 5′ primer: […] (SEQ ID NO:3) and Rat 18S rRNA 3′ primer: […]) (SEQ ID NO:4), 5 μl 2×SYBR Green Master Mix, 0.1 μl 10× QuantiFast RT Mix. The SYBR Green assay was performed using a LightCycler 480 II (Roche Applied Science) with an initial incubation at 50° C. for 10 min for RT followed by denaturation at 95° C. for 5 min. Forty cycles of amplification were performed using a thermal cycling profile of 95° C. for 10s, 60° C. for 30 s. Subsequently, a melting curve was recorded by holding at 95° C. for 60 s, cooling to 60° C. for 60 s, and then heating at 0.11° C./s up to 95° C. The data was collected and analyzed using the LightCycler 480 Software Release 1.5.0 SP3. The relative amount of TXNIP mRNA was normalized to 18 s rRNA level as a housekeeping gene, and the data was analyzed according to the 2^−ΔΔCT method (1). The transformed data was expressed as % inhibition and compound IC50 calculated by a 4-parameter logistic fit of the data using GraphPad Prism 7.

[1] = INS-1 cell viability (Cell Titer-Glo, ATP); format: cell-based, Rat; conditions: rat, INS-1 cells, 72 hrs treatment
Experimental: INS-1 cell viability was determined based on quantification of ATP using Cell Titer-Glo Luminescent Cell Viability Assay kit (Promega #G7572), which indicates the presence of metabolically active cells. Briefly, INS-1 cells were seeded into 96-well plates at a cell density of 4.5×10^4 and 3.5×10^4 cells per well and incubated overnight at 37° C. with 5% CO2. On the following day, cells were treated with compounds for 24 hrs and 72 hrs respectively. Cell Titer-Glo reagent was added to the cells and Luminescence was acquired on Synergy 4 Reader ([…]).

Compound	inhibition at 1.5 µM (TXNIP) [%]	inhibition at 12.5 µM (TXNIP) [%]	CC50 at 72 h [1] [µM]
CS(=O)(=O)NCC1CCCN(c2ncnc3cc(N4CCOCC4)c(F)cc23)C1 (stereo not drawn) [Compound 23, N-((1-(6-fluoro-7-morpholinoquinazolin-4-yl)piperidin-3-yl)methyl)methanesulfonamide]	0	23	> 100
COc1cc2ncnc(N3CCCC(CNS(C)(=O)=O)C3)c2cc1OC (stereo not drawn) [Compound 8, N-((1-(6,7-dimethoxyquinazolin-4-yl)piperidin-3-yl)methyl)methanesulfonamide]	0	7	> 100
CS(=O)(=O)NCC1CCCCN1c1ncnc2cc(C#N)c(F)cc12 (stereo not drawn) [Compound 43, N-((1-(7-cyano-6-fluoroquinazolin-4-yl)piperidin-2-yl)methyl)methane-sulfonamide]	0	16	> 100
CC(C)N(CC1CCCN(c2ncnc3ccccc23)C1)S(C)(=O)=O (stereo not drawn) [Compound 40, N-isopropyl-N-((1-(quinazolin-4-yl)piperidin-3-yl)methyl)methanesulfonamide]	14	46	70
CS(=O)(=O)NC1CCCN(c2ncnc3ccccc23)C1 (stereo not drawn) [Compound 31, N-(1-(quinazolin-4-yl)piperidin-3-yl)methanesulfonamide]	17	82	67
CS(=O)(=O)NCC1CN(c2ncnc3cc(C(N)=O)c(F)cc23)CCO1 (stereo not drawn) [Compound 47, 6-fluoro-4-(2-(methylsulfonamidomethyl)morpholino)quinazoline-7-carboxamide]	5	7	> 100
O=S(=O)(NCC1CCCN(c2ncnc3ccc(C(F)(F)F)cc23)C1)C1CC1 (stereo not drawn) [Compound 57, N-((1-(6-(trifluoromethyl)quinazolin-4-yl)piperidin-3-yl)methyl)cyclopropanesulfonamide]	33	67	43
CS(=O)(=O)NC1CCCN(c2ncnc3cc(F)c(F)cc23)C1 (stereo not drawn) [Compound 33, N-(1-(6,7-difluoroquinazolin-4-yl)piperidin-3-yl)methanesulfonamide]	29	68	68
CS(=O)(=O)NC1CCCN(c2ncnc3cc(F)c(C#N)cc23)C1 (stereo not drawn) [Compound 37, N-(1-(6-cyano-7-fluoroquinazolin-4-yl)piperidin-3-yl)methanesulfonamide]	0	24	> 100
Cc1cc2ncnc(N3CCCC(CNS(C)(=O)=O)C3)c2cc1F (stereo not drawn) [Compound 22, N-((1-(6-fluoro-7-methylquinazolin-4-yl)piperidin-3-yl)methyl)methanesulfonamide]	15	34	> 100
CS(=O)(=O)NCC1CCCN(c2ncnc3cc(C(N)=O)c(F)cc23)C1 (stereo not drawn) [Compound 21, 6-fluoro-4-(3-(methylsulfonamidomethyl)piperidin-1-yl)quinazoline-7-carboxamide]	0	12	> 100
NC(=O)c1cc2ncnc(N3CCCC(CNS(=O)(=O)C4CC4)C3)c2cc1F (stereo not drawn) [Compound 59, 4-(3-(cyclopropanesulfonamidomethyl)piperidin-1-yl)-6-fluoroquinazoline-7-carboxamide]	5	5	> 100
CS(=O)(=O)NC1CN(c2ncnc3ccc(F)cc23)C1 [Compound 52]	4	5	> 100
